Experimental data published in paper PMC5457512, “Structural basis for perception of diverse chemical substances by T1r taste receptors” (Nature Communications, 2017).
Like-named read-outs stand apart in the source and are kept apart here.

B1: Fab16A, Fab fragment of the anti-T1r2a-3LBD monoclonal antibody clone 16A (Fab, V domains shown)
VH: EVQLQQSGPELVKPGASMKISCKASGYSFTGYSMNWVKQSHGKNLEWIGLINPYNGDTTYKQKFKGKATLTVDRSSSTAYMELLRLTSEDSAVYYCARSGRGAPTTTTAWFTYWGQGTLVTVSA
VL: DIVLTQSPASLAVSLGQRATISCRASESVDSYGNSFMHWYQQKPGQPPILLISRASNLESGIPARFSGSGSRTDFTLTINPVEADDFATYYCQQTNEDPRTFGGGTKLEIK
notes: Parent antibody is mouse IgG1:kappa; Fab made by papain digestion; also called anti-T1r2a-3LBD mAb clone 16A; source: mouse hybridoma (Mikuri Immunological Lab. Co.); IgG digested with Immobilized-Papain, purified (Protein A Sepharose, Mono S)

Legend:
[1] = molecular target: full-length T1r2a–T1r3 receptor (Oryzias latipes, UniProt A0A173M094+A0A173M0G2); experiment: Ca2+ flux assay of full-length receptor in HEK293 (Flip-In 293) cells; type: cell-based, medaka fish (Oryzias latipes); details: for Response of the full-length receptor according to Ca2+-imaging: qualitative, tested up to 10 mM
Description: (§1) The Ca^2+ flux assays were performed using a FLEX station 3 (Molecular Devices, LLC) for the cells loaded with 100 μl of Hank's balanced salt solution (Sigma-Aldrich), containing 5 μM of the calcium indicator dye Fluo8 NW (AAT Bioquest). The stimulation was performed by adding 25 μl of 5 × concentrated solutions of taste substances, using a pipette. The intensity of the response was represented as ΔRFU (delta relative fluorescence unit) defined as maximum fluorescence value for the taste substances minus that for the Hank's Balanced Salt Solution, and was plotted versus the ligand concentration. The concentration-response curves were fitted to the Hill equation, using SigmaPlot software (Systat Software).

T1r2a–T1r3:S300E mutant = molecular target: T1, T1r2a–T1r3:S300E mutant (Oryzias latipes, UniProt A0A173M0G2); experiment: cell-based; set-up: species or system medaka fish (Oryzias latipes)
T1 sequence (A0A173M0G2 12-802): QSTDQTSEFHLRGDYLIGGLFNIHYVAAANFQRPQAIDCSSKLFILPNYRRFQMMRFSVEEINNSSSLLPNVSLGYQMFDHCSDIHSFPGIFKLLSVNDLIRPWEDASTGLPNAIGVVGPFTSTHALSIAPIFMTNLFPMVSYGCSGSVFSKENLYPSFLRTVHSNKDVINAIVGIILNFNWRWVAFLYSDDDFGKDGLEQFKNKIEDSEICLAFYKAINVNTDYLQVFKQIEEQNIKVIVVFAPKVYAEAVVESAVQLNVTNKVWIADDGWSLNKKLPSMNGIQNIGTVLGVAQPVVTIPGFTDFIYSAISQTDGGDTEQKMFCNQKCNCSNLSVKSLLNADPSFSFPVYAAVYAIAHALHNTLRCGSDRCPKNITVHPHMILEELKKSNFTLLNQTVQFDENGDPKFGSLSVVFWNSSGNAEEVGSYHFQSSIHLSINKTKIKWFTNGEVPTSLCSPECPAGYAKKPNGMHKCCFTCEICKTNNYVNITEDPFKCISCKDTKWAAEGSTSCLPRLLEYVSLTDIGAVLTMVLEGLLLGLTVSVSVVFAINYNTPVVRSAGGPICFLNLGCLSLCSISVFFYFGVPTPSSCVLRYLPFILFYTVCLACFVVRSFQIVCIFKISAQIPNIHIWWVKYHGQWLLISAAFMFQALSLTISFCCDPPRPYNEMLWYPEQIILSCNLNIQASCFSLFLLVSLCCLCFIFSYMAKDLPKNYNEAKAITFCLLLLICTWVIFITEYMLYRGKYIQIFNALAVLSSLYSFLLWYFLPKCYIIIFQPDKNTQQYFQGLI
T1 sequence (A0A173M094 12-836 partner): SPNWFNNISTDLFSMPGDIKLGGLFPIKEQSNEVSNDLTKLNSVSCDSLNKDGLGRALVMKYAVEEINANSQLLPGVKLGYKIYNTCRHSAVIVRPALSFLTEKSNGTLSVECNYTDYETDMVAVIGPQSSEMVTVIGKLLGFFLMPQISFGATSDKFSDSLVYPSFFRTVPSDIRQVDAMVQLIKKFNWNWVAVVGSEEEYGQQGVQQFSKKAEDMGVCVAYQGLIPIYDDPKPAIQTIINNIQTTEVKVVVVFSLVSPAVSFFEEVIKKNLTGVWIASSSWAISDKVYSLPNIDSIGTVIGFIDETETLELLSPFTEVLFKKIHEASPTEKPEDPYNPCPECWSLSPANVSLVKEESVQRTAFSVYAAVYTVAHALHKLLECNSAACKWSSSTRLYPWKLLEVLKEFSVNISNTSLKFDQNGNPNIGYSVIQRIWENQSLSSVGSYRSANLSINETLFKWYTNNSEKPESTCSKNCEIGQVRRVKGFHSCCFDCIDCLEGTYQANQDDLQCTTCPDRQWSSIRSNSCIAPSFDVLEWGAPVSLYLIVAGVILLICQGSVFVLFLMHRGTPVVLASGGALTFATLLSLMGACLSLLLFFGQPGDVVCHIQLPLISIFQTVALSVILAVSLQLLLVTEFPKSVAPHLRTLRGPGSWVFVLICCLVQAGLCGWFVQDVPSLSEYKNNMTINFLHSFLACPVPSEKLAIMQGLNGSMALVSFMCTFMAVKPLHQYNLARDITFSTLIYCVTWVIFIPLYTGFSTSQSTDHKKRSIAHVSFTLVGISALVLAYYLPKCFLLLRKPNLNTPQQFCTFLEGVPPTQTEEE
Description: as §1
Mutations were introduced using QuikChange (Agilent Technologies) or PrimeStarMax (TAKARA BIO, only for T1r2a:S165I) with primers summarized in Supplementary Table 3.

[2] = cited from earlier work; for Hydropathy index: ref Handbook of Chemistry and Physics, CRC Press; for pI: ref Kyte & Doolittle, J. Mol. Biol., 157, 105-132, 1982; for Volume: ref Tsai et al. J. Mol. Biol., 290, 253-266,1999
[3] = molecular target: T1r2a–T1r3LBD heterodimer (Oryzias latipes, UniProt A0A173M094+A0A173M0G2); experiment: FRET signal change of T1r2aLBD-Cerulean and T1r3LBD-Venus heterodimer on amino acid binding; details: for FRET signal elevation of fluorescence-labelled LBDs: qualitative
Description: The conformational change of T1r2a–T1r3LBD on ligand binding was analysed by Förster resonance energy transfer (FRET) measurement. The heterodimer of the T1r2aLBD (M1-S474)—Celurean fusion protein (T1r2aL-Ce) and the T1r3LBD (M1-S491)—Venus fusion protein (T1r3L-Ve) was stably expressed by S2 cells (Invitrogen) and purified by ANTI-FLAG M2 affinity gel (SIGMA) by use of the FLAG-tag at their C termini, as previously described[22]. […] The titration curves were fitted to the Hill equation by using KaleidaGraph (Synergy Software).
Therefore, at least two independent measurements were performed in this study, except for the inset in Fig. 2a with a single analysis.

human T1r1–T1r3 = tested on: human T1r1–T1r3; set-up: method as in PMID 24214976; details: cited from earlier work
[4] = molecular target: T2, T1r2a-T1r3LBD heterodimer, medaka fish (Oryzias latipes (medaka fish), UniProt A0A173M0G2;A0A173M094, glycosyl chains trimmed to single N-acetylglucosamine residues by Endo H | glycosyl chains trimmed to single N-acetylglucosamine residues by Endo H); experiment: crystal structure; T1r2a-3LBD heterodimer co-crystallised with Fab16A, with bound L-Gln, L-Ala, L-Arg, L-Glu or Gly; sitting-drop vapor diffusion with microseeding, PEG 1500, PEG400, 0.1 M MES pH 6.0, 293 K; details: both partners purified
T2 construct: signal peptide in the construct; The two chains are joined by an intermolecular disulfide bridge, Cys344 (T1r2a) to Cys132 (T1r3); also called T1r2a-3LBD; T1r2aLBD-T1r3LBD heterodimer; source: S2 cells, stably co-expressed (5 uM kifunensine), from culture medium, purified (ANTI-FLAG M2, factor Xa, Endo H, SEC); not shown: FLAG, C-terminal, cleaved; copies: 1 + 1

[5] = fitted parameter ± s.e. of Hill equation, Fig. 2b, intracellular Ca2+ elevation, HEK293, read-out: EC50 Receptor responses, T1r2a wt T1r3 wt
[6] = fitted parameter ± s.e. of Hill equation, intracellular Ca2+ elevation, HEK293, read-out: EC50 Receptor responses, T1r2a wt T1r3 S300E

| Molecule | Response of the full-length receptor according to Ca2+-imaging ([1]; Fig. 2b) | Hydropathy index [2] | pI [2] | Volume [2] | EC50 [3] | FRET signal elevation of fluorescence-labelled LBDs ([3]; Fig. 2a) | further results |
| --- | --- | --- | --- | --- | --- | --- | --- |
| C[C@H](N)C(=O)O [L-Alanine] | induced responses | 1.8 | 6.00 | 90.0 Å3 | 141 ± 37 µM | induced FRET signal elevation | EC50 [1, 5]: 2460 ± 2670 µM; EC50 (T1r2a–T1r3:S300E mutant; [6]): 1800 ± 300 µM |
| NC(=O)CCC(N)C(=O)O (stereo in doubt) [D-glutamine] | – | – | – | – | – | – | FRET signal elevation of fluorescence-labelled LBDs, L- versus D-glutamine comparison ([3]; Fig. 2a inset, 283 K, single analysis): but not D-glutamine, induced FRET signal elevation |
| NC(=O)CC[C@H](N)C(=O)O [L-Glutamine] | induced responses | – | – | – | 11.5 ± 3.4 µM | induced FRET signal elevation | EC50 [1, 5]: 70 ± 8 µM; EC50 (T1r2a–T1r3:S300E mutant; [6]): 200 ± 19 µM |
| N=C(N)NCCC[C@H](N)C(=O)O [L-Arginine] | induced responses | -4.5 | 10.76 | 194.0 Å3 | 190 ± 35 µM | induced FRET signal elevation | EC50 [1]: 470 ± 297 µM; EC50 (T1r2a–T1r3:S300E mutant): 1300 ± 100 µM |
| NCC(=O)O [Glycine] | poor or no significant receptor responses | – | – | – | – | induced FRET signal elevation | EC50 ([3]; read-out: EC50 FRET changes of LBD, T1r2aLBD wt T1r3LBD wt, fitted parameter ± s.e. of Hill equation, Fig. 2a, room temperature): 6180 ± 3320 µM |
| N[C@@H](CCC(=O)O)C(=O)O [L-Glutamate] | poor or no significant receptor responses | -3.5 | 3.22 | 142.2 Å3 | 1070 ± 382 µM | induced FRET signal elevation | EC50 (human T1r1–T1r3): ~2700 µM; Maximum FRET change at saturating concentrations ([3]; compared with glutamine, Fig. 2a): larger changes |
| B1 | – | – | – | – | – | – | binding result [4]: binds |
